Where “and” joins values, the source holds several entries; their conditions need not be identical. Equal values may be shown once. Read-outs that look alike come from different tables or passages of the source.

Data set [1] deals with mononuclear peripheral blood cells enriched in CD34+ cells. Briefly: Proliferation of hematopoietic stem cells, percentage of CD34+ cells after seven days, Example 3. The data set is classed as cell-based. As to conditions: for potency of hematopoietic stem cell expansion compared with SR1: compared with potency reported for SR1; for hematopoietic stem cell growth (percentage of CD34+ cells): seven days following plating. As to the method: To assess the ability of compounds (5) and (16) to induce the proliferation of hematopoietic stem cells, a population of mononuclear peripheral blood cells enriched in CD34+ cells were plated at a density of 2,350 cells per well (50 μL) in a microtiter plate in the presence of each compound. The percentage of CD34+ hematopoietic stem cells was assessed seven days following the initial plating. […] The compounds of formula (I) and (II) described herein can thus be used to expand hematopoietic stem cells ex vivo in order to obtain sufficient quantities of such cells for in vivo applications.

Data set [2] concerns the target T1, aryl hydrocarbon receptor (Homo sapiens, UniProt P35869).
T1 construct: HepG2 cells transiently transfected with the pGudLuc6.1 plasmid were thawed and 25,000 cells were plated per well; endogenous in cells; host or cells: HepG2
T1 sequence (P35869 11-848): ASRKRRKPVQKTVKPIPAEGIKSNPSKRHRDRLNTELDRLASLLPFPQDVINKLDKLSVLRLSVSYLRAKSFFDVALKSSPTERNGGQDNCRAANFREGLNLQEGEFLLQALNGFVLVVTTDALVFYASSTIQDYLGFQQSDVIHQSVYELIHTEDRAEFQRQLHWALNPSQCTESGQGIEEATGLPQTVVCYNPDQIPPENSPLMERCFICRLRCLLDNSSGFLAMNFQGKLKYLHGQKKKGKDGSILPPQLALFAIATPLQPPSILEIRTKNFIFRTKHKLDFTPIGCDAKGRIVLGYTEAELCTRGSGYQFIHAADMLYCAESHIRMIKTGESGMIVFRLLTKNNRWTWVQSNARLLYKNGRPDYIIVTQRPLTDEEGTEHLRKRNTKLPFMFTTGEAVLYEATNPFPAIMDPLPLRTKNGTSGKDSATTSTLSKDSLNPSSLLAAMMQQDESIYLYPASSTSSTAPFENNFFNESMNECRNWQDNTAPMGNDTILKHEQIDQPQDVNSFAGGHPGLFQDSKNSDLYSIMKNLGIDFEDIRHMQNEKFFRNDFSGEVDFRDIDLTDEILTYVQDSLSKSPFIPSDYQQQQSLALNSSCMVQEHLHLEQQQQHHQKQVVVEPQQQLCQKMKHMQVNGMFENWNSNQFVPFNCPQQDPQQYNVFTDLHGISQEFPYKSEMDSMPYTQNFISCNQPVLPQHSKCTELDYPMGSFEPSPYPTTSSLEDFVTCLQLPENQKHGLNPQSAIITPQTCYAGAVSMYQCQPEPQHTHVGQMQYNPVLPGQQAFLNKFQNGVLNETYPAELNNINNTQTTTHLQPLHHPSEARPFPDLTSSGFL
As to the kind of experiment: Aryl hydrocarbon receptor-driven luciferase reporter in transiently transfected HepG2 cells, Example 3. As to conditions: absence or presence of VAF347 (80 nM); six hours after plating. The data set is classed as cell-based. As to the method:
To determine the ability of compounds (5) and (16) to inhibit the activity of the aryl hydrocarbon receptor and to induce the proliferation of hematopoietic stem cells, a series of HSC expansion experiments were conducted. In the first experiment, compounds (5) and (16) were assessed for their capacity to attenuate aryl hydrocarbon receptor signaling. To this end, HepG2 hepatocytes were transiently transfected with a luciferase reporter construct under the control of a promoter responsive to aryl hydrocarbon receptor signal transduction. The cells were plated at a density of 25,000 cells per well in a microtiter plate. The HepG2 cells were immediately treated with compound (5) or (16) in the absence (FIG. 1) or presence (FIG. 2) of the aryl hydrocarbon receptor agonist, VAF347 (80 nM). Luciferase activity was subsequently analyzed six hours after plating.
On the technique in general: Reporter assays use an easily measured gene product as a stand-in for the process of interest.

For data set [3], the system named is NSG mice. As to the kind of experiment: Transplantation into NSG mice of human hematopoietic stem cells expanded ex vivo with AHR antagonist; blood chimerism and brain microglia engraftment, Example 5. The data set is classed as in vivo. To be noted: NSG mice transplanted with cord blood CD34+ cells expanded 10 days with 500 nM AHR antagonist. As to the method: To investigate the ability of hematopoietic stem cells to differentiate into microglial cells and subsequently engraft in central nervous system tissue, such as the brain of a hematopoietic stem cell transplant recipient, a series of experiments were conducted in which human hematopoietic stem cells were first expanded ex vivo in the presence of an aryl hydrocarbon receptor antagonist (compound (16) or compound (24)) and were subsequently transplanted into NSG mice, in accordance with the scheme shown in FIG. 4. The frequency of human CD45+ cells in the peripheral blood of the mice was then determined, as well as the profile of microglial cells in the brain tissue using flow cytometry and immunohistochemistry techniques. […]
At the time of thaw, an equal number of cells to the starting cell cultures were injected into NSG mice, sublethally irradiated (200 cGy) 24 hours prior to injection. […] Peripheral blood was harvested by retro-orbital bleeding at approximately weeks 4 and 8 or by cardiac puncture at week 12 and chimerism was assessed by flow cytometry using antibodies against hCD45, mCD45, hCD33, hCD19, hCD3 and a viability dye. […]
Embedded brains were sectioned at approximately 5 microns and stained with Ku80 (brown) and Iba-1 (red) primary antibodies). Mouse brains were analyzed from each transplanted mouse and five levels were analyzed each. […]

For data set [4], the system named is mobilized peripheral blood CD34+ cells. Briefly: CD34+ hematopoietic stem/progenitor cell expansion (CD34+ frequency and number), Example 9. The data set is classed as cell-based. To be noted: dose response beginning at 10 pM, day 7, flow cytometry. As to the method:
To determine the activity of a scale-up batch of Compound (24), individual enantiomers, and two derivatives Compound (27) and Compound (28) were evaluated for i) the ability to expand CD34+ hematopoietic stem/progenitor cells and ii) AHR antagonist activity. The compounds were compared to control AHR antagonist SR1, an additional control AHR antagonist, and stored sample of Compound (24) CD34+ Frequency and Number
Methods—mobilized peripheral blood CD34+ cells were cultured in the presence of compound, in dose response beginning at 10 pM. CD34+ cell frequency and number was assessed at day 7 by flow cytometry. All synthesized compounds show equivalent expansion capabilities if not greater than SR1.

Data set [5] deals with T2, AHR (Homo sapiens, UniProt P35869).
T2 construct: HepG2 cells transiently transfected with the pGudLuc6.1 plasmid were thawed and 25,000 cells were plated per well; endogenous in cells; host or cells: HepG2
T2 sequence (P35869 11-848): T1 sequence (P35869 11-848)
Briefly: AHR antagonist assay, HepG2 cells transiently transfected with pGudLuc6.1 luciferase plasmid, Example 9. The format is cell-based. As to conditions: luciferase activity 24 hours post-culture. As to the method: Methods—HepG2 cells transiently transfected with the pGudLuc6.1 plasmid were thawed and 25,000 cells were plated per well and immediately treated the AHR agonist VAF347 (fixed at 40 nM) and/or the indicated AHR antagonists. Luciferase activity was measured 24 hours post-culture, corresponding to endogenous AHR antagonist activity (without VAF347, FIG. 14) or in the presence of VAF347 (FIG. 15). All synthesized compounds show equivalent AHR antagonist activity if not greater than SR1.

Setting [6] is: VAF347 fixed at 40 nM, read-out: AHR Antagonist Activity in the Presence of VAF347 EC50.
The mark [7] stands for this setting: without VAF347, read-out: Endogenous AHR Antagonist Activity EC50.

On to `CCC(C)c1cnc2c(NCCc3c[nH]c4ccccc34)cc(-c3cncc(F)c3)cn12` (centres unmarked) [Compound (5)], for which, in data set [1], the “potency of hematopoietic stem cell expansion compared with SR1” value was “potency greater than that reported for StemRegeninl (SR1)” and the “hematopoietic stem cell growth (percentage of CD34+ cells)” value was “capable of potentiating hematopoietic stem cell growth in a dose-dependent manner”. Moreover, the “suppression of aryl hydrocarbon receptor activity (luciferase)” value in data set [2] is “capable of suppressing aryl hydrocarbon receptor activity even in the presence of the activator VAF347”.
For `CCC(C)c1cnc2c(NCCc3c[nH]c4ccccc34)nc(-c3cncc(F)c3)cn12` (centres unmarked) [Compound (16)], the “frequency of hCD45+ cells in peripheral blood” value in data set [3] is “increased frequency of hCD45+ cells in peripheral blood”. Further, the “engraftment of hCD45+CD11b+ microglial cells in the brain” value in data set [3] (brains at 3 months) was “increased engraftment of hCD45+CD11b+ microglial cells in the brain”. Besides, in data set [1], the “potency of hematopoietic stem cell expansion compared with SR1” value is recorded as “potency greater than that reported for StemRegeninl (SR1)” and the “hematopoietic stem cell growth (percentage of CD34+ cells)” value was “capable of potentiating hematopoietic stem cell growth in a dose-dependent manner”. The “suppression of aryl hydrocarbon receptor activity (luciferase)” value in data set [2] is reported as “capable of suppressing aryl hydrocarbon receptor activity even in the presence of the activator VAF347”.
Turning to `COCCC(C)c1cnc2c(NCCc3c[nH]c4ccccc34)nc(-c3cncc(F)c3)cn12` (single isomer, unassigned) [Compound (24) - Enantiomer Peak 1, 6-(5-fluoropyridin-3-yl)-N-[2-(1H-indol-3-yl)ethyl]-3-(3-methoxy-1-methylpropyl)imidazo[1,2-a]pyrazin-8-amine], the values for the EC50 in data set [4], in data set [5] (setting [6]) and in data set [5] (setting [7]) were 11 nM, 12 nM and 1 nM, respectively.
For `COCCC(C)c1cnc2c(NCCc3c[nH]c4ccccc34)nc(-c3cncc(F)c3)cn12` (single isomer, unassigned) [Compound (24) - Enantiomer Peak 2, 6-(5-fluoropyridin-3-yl)-N-[2-(1H-indol-3-yl)ethyl]-3-(3-methoxy-1-methylpropyl)imidazo[1,2-a]pyrazin-8-amine] the same measures were 4 nM, 6 nM and 0.4 nM.
Take `CC(C)n1cnc2c(NCCc3ccc(O)cc3)nc(-c3csc4ccccc34)nc21` [SR1, reference compound]: the EC50 (commonly the concentration that produces a half-maximal response) came out at 112 nM in data set [4], 193 nM in data set [5] (setting [6]) and 33 nM in data set [5] (setting [7]).
In the case of `CCOCCC(C)c1cnc2c(NCCc3c[nH]c4ccccc34)nc(-c3cncc(F)c3)cn12` (centres unmarked) [Compound (28), 3-(3-ethoxy-1-methylpropyl)-6-(5-fluoropyridin-3-yl)-N-[2-(1H-indol-3-yl)ethyl]imidazo[1,2-a]pyrazin-8-amine], the EC50 in data set [4] (168 h) is 10 nM; in data set [5] (setting [6]), 30 nM; in data set [5] (setting [7]), 2 nM.
For the compound `COCCCC(C)c1cnc2c(NCCc3c[nH]c4ccccc34)nc(-c3cncc(F)c3)cn12` (centres unmarked) [Compound (27), 6-(5-fluoropyridin-3-yl)-N-[2-(1H-indol-3-yl)ethyl]-3-(4-methoxy-1-methylbutyl)imidazo[1,2-a]pyrazin-8-amine], the EC50 was determined as 8 nM in data set [4] (168 h), 9 nM in data set [5] (setting [6]) and 2 nM in data set [5] (setting [7]).
Consider `COCCC(C)c1cnc2c(NCCc3c[nH]c4ccccc34)nc(-c3cncc(F)c3)cn12` (racemic) [Compound (24), 6-(5-fluoropyridin-3-yl)-N-[2-(1H-indol-3-yl)ethyl]-3-(3-methoxy-1-methylpropyl)imidazo[1,2-a]pyrazin-8-amine], for which the concentration for a half-maximal effect (EC50) is 7 nM in data set [4] (168 h); 13 nM and 11 nM in data set [5] (setting [6]); 1 nM in data set [5] (setting [7]).

The values are drawn from US10351572B2, “Aryl hydrocarbon receptor antagonists and uses thereof” (Magenta Therapeutics Inc., priority 2017, dated 2019).
